Values quoted from earlier work, collected in patent publication US8697743B2, “Antioxidant camptothecin derivatives and antioxidant antineoplastic nanospheres thereof” (Cedars-Sinai Medical Center, priority 2008, dated 2014).

Experiments:
[1] = 30 minutes after administration

## CC[C@@]1(O)C(=O)OCc2c1cc1n(c2=O)Cc2cc3ccccc3nc2-1 [camptothecin, (S)-4-ethyl-4-hydroxy-1H-pyrano-[3′,4′:6,7]indolizino[1,2-b]quinoline-3,14(4H,12H)-dione]
[1]
  lactone form hydrolyzed to an open ring: 50%
other
  solubility in water: essentially insoluble in water
